The values below are quoted from earlier work in patent US20050159471A1, “Compositions of a benzenesulfonamide or methylsulfonylbenzene cyclooxygenase-2 selective inhibitor and a cholinergic agent for the treatment of reduced blood flow or trauma to the central nervous system” (Pharmacia Corporation, priority 2003, published 2005).

For the series the following is noted: administered to subjects following stroke.

Regarding citicoline, the behavioral parameters result is “improvement in behavioral parameters” and the infarction volume entry is “decrease in infarction volume”.
